# Results from patent US20200093932A1, “TREATMENT OF CANCER” (BlueLink Pharmaceuticals, Inc., priority 2016, published 2020).
# Columns and labels:
# Format in all cases: in vivo
# [1] = system: B16.F10 mouse melanoma tumor model; test: Example 2: CRLX101 with INCB-024360, tumor growth inhibition and delay
# Description: On Day 1, B16.F10 cells, passage 5, were suspended in DMEM (Dulbecco's Modified Eagle Medium) and implanted subcutaneously (SC) in mice. When the mean tumor volume reached 60 mm^3, the mice were randomized into study groups and given one of the following treatments: • a control vehicle (20% DMSO/7.5% propylene glycol/5% Tween 80/67.5% PBS) administered IP bid for 13 days, from Day 5 to Day 17, with a dose volume of 10 mL/kg • CRLX101 administered IV at 6 mg/kg q7dx2, i.e. on Day 5 and Day 12 at a dose volume of 10 mL/kg as monotherapy and in combination • INCB-024360 (lot #01, SelleckChem, Houston, Tex.) 10 mg/mL in 20% DMSO/[…]/5% Tween 80/67.5% PBS. The dose was 100 mg/kg administered PO twice every day with a dose volume of 10 mL/kg for 13 days, from Day 5 to […] post tumor implantation as a monotherapy and in combination with CRLX101
# (§1) Tumor volumes were measured 3 times every week using the equation (width*width*length)/2, in mm^3. Tumor growth inhibition (TGI) was determined by comparing the mean tumor volume of the treated group with the mean tumor volume of the control group, as the decrease in tumor volume of the treated group as a percent of total tumor volume of the control group. The equation to calculate TGI is (1-(treated volume/control volume))*100.
# (§2) Tumor growth delay (TGD) was determined as the number of days between when the control group reached the tumor volume endpoint and when the treated group reached the tumor volume endpoint.
# [2] = system: B16.F10 mouse melanoma tumor model; test: Example 3: CRLX101 with Indoximod, tumor growth inhibition and delay
# Description: On Day 1, B16.F10 cells, passage 2, were suspended in DMEM (Dulbecco's Modified Eagle Medium) and implanted subcutaneously (SC) in mice. When the mean tumor volume reached 69 mm^3, the mice were randomized into study groups and given one of the following treatments: • a control vehicle (drinking water with the sweetening agent Equal™ added (2 g/L)) was included in the study from Day 7 to Day 19 post tumor implantation. • CRLX101 administered IV at 6 mg/kg q7dx2, i.e. on Day 7 and Day 14 at a dose volume of 10 mL/kg as monotherapy and in combination. • Indoximod (lot # MKBQ8091V, Sigma-Aldrich) was administered in the drinking water at a concentration of 2 mg/mL from Day 7 to Day 19 post tumor implantation as a monotherapy and in combination with CRLX101. The water had Equal™ added (2 g/L).
# Tumor volumes were measured 3 times every week using the equation (width*width*length)/2, in mm^3. The endpoint for tumor volume was 2000 mm^3. Tumor growth inhibition (TGI) was determined by comparing the mean tumor volume of the treated group with the mean tumor volume of the control group, as the decrease in tumor volume of the treated group as a percent of total tumor volume of the control group. […]
# as §2
# [3] = system: B16.F10 mouse melanoma tumor model; test: Example 4: CRLX101 + NLG-919 analog versus Irinotecan + NLG-919 analog, tumor growth inhibition and delay; conditions: for Inhibit tumor growth?: B16.F10 SC tumors in mice, CRLX101 6 mg/kg IV q7dx2 (Day 6, 13), NLG-919 analog 12.5 mg/kg IP bid Day 6-19, Irinotecan 100 mg/kg q7dx2 (Day 6, 13); for TGI vs. Control (%): same dosing, relative to vehicle control
# Description: On Day 1, B16.F10 cells, passage 3, were suspended in DMEM (Dulbecco's Modified Eagle Medium) and implanted subcutaneously (SC) in mice. […] The dose was 100 mg/kg q7dx2, i.e., administered at a dose volume of 10 mL/kg on Day 6 and Day 13 post tumor implantation as a monotherapy and in combination.
# as §1, §2
# [4] = system: B16.F10 mouse melanoma tumor model; test: Example 1: CRLX101 with NLG-919 analog or INCB-024360 analog, tumor growth inhibition and delay
# Description: On Day 1, B16.F10 cells, passage 3, were suspended in DMEM (Dulbecco's Modified Eagle Medium) and implanted subcutaneously (SC) in mice. […] The dose was 100 mg/kg administered PO twice every day with a dose volume of 10 mL/kg for 14 days, from Day 7 to Day 20 post tumor implantation as a monotherapy and in combination with CRLX101
# as §1, §2
# [5] = system: B16.F10 mouse melanoma tumor model; test: Example 5: CRLX101 + NLG-919 analog versus anti-PD-1 antibody + NLG-919 analog, tumor growth inhibition and delay
# Description: On Day 1, B16.F10 cells, passage 3, were suspended in DMEM (Dulbecco's Modified Eagle Medium) and implanted subcutaneously (SC) in mice.
# as §1, with “(1−(treated” for “(1-(treated”
# as §2
# [6] = same dosing, vs vehicle when the control group reached the tumor volume endpoint
smiles,measurement,setting,value
NS(=O)(=O)NCCNc1nonc1/C(=N/O)Nc1ccc(F)c(Br)c1 [INCB-024360],Inhibit tumor growth?,"[1]; B16.F10 SC tumors in mice, CRLX101 6 mg/kg IV q7dx2 (Day 5, 12), INCB-024360 100 mg/kg PO bid Day 5-18",did not inhibit tumor growth and No
same,TGD (Day),"[1]; same dosing, days between control and treated group reaching the tumor volume endpoint",no TGD
same,TGI vs. Control (%),[1]; [6],20%
Cn1cc(C[C@@H](N)C(=O)O)c2ccccc21 [Indoximod],Inhibit tumor growth?,"[2]; B16.F10 SC tumors in mice, CRLX101 6 mg/kg IV q7dx2 (Day 7, 14), Indoximod 2 mg/mL in drinking water Day 7-19",did not inhibit tumor growth and No
same,TGI vs. Control (%),"[2]; same dosing, vs vehicle when the control group reached the tumor volume endpoint (2000 mm^3)",−49%
CCc1c2c(nc3ccc(OC(=O)N4CCC(N5CCCCC5)CC4)cc13)-c1cc3c(c(=O)n1C2)COC(=O)[C@]3(O)CC [Irinotecan],Inhibit tumor growth?,[3],No
same,TGI vs. Control (%),[3],−12%
OC(CC1c2ccccc2-c2cncn21)C1CCCCC1 (stereo not shown) [NLG-919 analog],Inhibit tumor growth?,[3],did not inhibit tumor growth and No
same,TGI vs. Control (%),[3],5%
same,Inhibit tumor growth?,"[4]; B16.F10 SC tumors in mice, CRLX101 6 mg/kg IV q7dx2 (Day 7, 14), NLG-919 analog 12.5 mg/kg IP bid Day 7-20, INCB-024360 analog 100 mg/kg PO bid Day 7-20",No
same,TGI vs. Control (%),"[4]; same dosing, mean tumor volume vs vehicle when the control group reached the tumor volume endpoint",23%
same,Inhibit tumor growth?,"[5]; B16.F10 SC tumors in mice, CRLX101 6 mg/kg IV q7dx2 (Day 6, 13), NLG-919 analog 12.5 mg/kg IP bid Day 6-19, anti-mouse PD-1 antibody 200 μg per mouse IP Day 6, 9, 13, 16",did not inhibit tumor growth and No
same,TGI vs. Control (%),[5]; [6],15%
